Measurements published in US20250099420A1, “SMALL MOLECULE MODULATORS OF GPR139 COMPLEX” (University of Florida Research Foundation, Incorporated, priority 2022, published 2025).
Read-outs that look alike come from different tables or passages of the source.

Assays:
[1] = test system: parental HEK cells; experiment: HEK parental Agonist Counterscreen Assay (non-transfected cells); format: cell-based; settings: for Averaged Max % Response (±St. Dev.): activity relative to known control
Source text: The high control for the agonist counterscreen was Forskolin not acetylcholine.

[2] = biological target: T1, GPR139 (Homo sapiens, UniProt Q6DWJ6); experiment: GPR139 Agonist titration / agonist counterscreen assay (calcium detection, HEK-GPR139 cells); format: cell-based; parameters: expressed in transfected cells; host or cells: HEK Aequorin cells, Maxcyte transient transfection; settings: GPR139 Agonist Activity; for EC50: read-out: EC50; for Averaged Max % Response (±St. Dev.): activity relative to known control
T1 sequence (Q6DWJ6 1-353): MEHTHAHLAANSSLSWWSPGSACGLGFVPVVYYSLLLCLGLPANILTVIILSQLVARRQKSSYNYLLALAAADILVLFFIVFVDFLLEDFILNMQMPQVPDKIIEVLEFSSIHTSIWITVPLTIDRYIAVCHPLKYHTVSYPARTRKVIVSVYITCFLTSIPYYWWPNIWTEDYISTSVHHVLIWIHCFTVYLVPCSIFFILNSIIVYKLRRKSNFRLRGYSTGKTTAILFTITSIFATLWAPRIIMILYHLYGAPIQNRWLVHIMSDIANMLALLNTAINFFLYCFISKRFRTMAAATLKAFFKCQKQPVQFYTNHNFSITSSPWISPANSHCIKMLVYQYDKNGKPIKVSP
Method: GPR activity was assessed using a calcium detection assay. […] Negative control samples were treated with DMSO. […] Intracellular calcium was measured using Calcium 5.

[3] = Homo sapiens, HEK293, HEK Agonist Activity section of Table 4 (parental HEK counterscreen)
[4] = values printed in E-notation without unit
[5] = HEK Agonist Activity section of Table 4 (parental HEK counterscreen)

Row | Structure (SMILES) | Lipophilic Efficiency (logD) ([1]; HEK Agonist Activity section) | Lipophilic Efficiency (logP) ([1]; HEK Agonist Activity section) | Averaged Max % Response (±St. Dev.) ([1]; HEK Agonist Activity section) [%] | EC50 [1, 3] [µM] | Efficiency Ligand [2] | Hill Slope [2] | Lipophilic Efficiency (logD) [2] | Lipophilic Efficiency (logP) [2] | EC50 ([2]; HEK-GPR139 cells) [µM] | Averaged Max % Response (±St. Dev.) [2] [%] | Lipophilic Efficiency (logD) ([2]; based on logD) | Lipophilic Efficiency (logP) ([2]; based on logP) | Hill Slope ([2]; fitted dose-response curve) | Efficiency Ligand ([2]; ligand efficiency) | EC50 [2, 4] [µM] | Lipophilic Efficiency (logD) ([1]; HEK Agonist Activity) | Lipophilic Efficiency (logP) ([1]; HEK Agonist Activity) | Averaged Max % Response (±St. Dev.) ([1]; HEK Agonist Activity) [%] | EC50 ([1]; Homo sapiens, HEK293, HEK Agonist Activity, parental non-transfected HEK cells) [µM] | EC50 [1, 5] [µM]
1 | Cc1ccc(CCC(=O)NNC(=O)CCc2ccccc2)c(Br)c1 [SR-01000313193] | 1.40 | 1.39 | 8.61 ± 6.03 | > 14.1 | 0.36 | 1.19 | 2.69 | 2.69 | 0.719 | 90.41 ± 15.26 |  |  |  |  |  |  |  |  |  | 
2 | O=C(NCCCn1ccnc1)c1cc2nc3c(c(C(F)(F)F)n2n1)CCc1ccccc1-3 [SR-01000313440] | 1.45 | 1.38 | 0.31 ± 4.15 | > 14.1 | 0.28 | 1.29 | 3.07 | 3.01 | 0.332 | 84.05 ± 13.31 |  |  |  |  |  |  |  |  |  | 
3 | O=C(CCc1ccccc1)NNC(=O)C12CC3CC(CC(C3)C1)C2 [SR-01000314474] | 1.59 | 1.59 | −0.07 ± 5.01 | > 14.1 | 0.37 | 2.04 | 3.13 | 3.13 | 0.401 | 90.74 ± 17.54 |  |  |  |  |  |  |  |  |  | 
4 | O=C(COc1ccc2ccccc2c1)NNC(=O)Cc1cccc2ccccc12 [SR-01000316766] | 1.14 | 1.14 | −0.94 ± 3.21 | > 14.1 |  |  |  |  |  | 101.45 ± 17.20 | 3.15 | 3.15 | 1.07 | 0.33 | 0.138 |  |  |  |  | 
5 | CCC(=O)NNC(=O)C(C)Oc1ccc(Cl)cc1Cl (stereo not drawn) [SR-01000316982] | 2.52 | 2.48 | 2.44 ± 4.96 | > 14.1 | 0.46 | 1.19 | 3.90 | 3.86 | 0.58 | 86.53 ± 11.45 |  |  |  |  |  |  |  |  |  | 
6 | Cc1cc(Cl)ccc1OCC(=O)NNC(=O)C1CC1c1ccccc1 (stereo not drawn) [SR-01000317486] |  |  |  |  |  |  |  |  |  | 114.27 ± 15.21 | 4.70 | 4.70 | 1.01 | 0.44 | 0.0123 | 1.64 | 1.64 | 3.86 ± 3.87 | > 14.1 | 
7 | Cc1cccc(OCC(=O)NNC(=O)C(C)Oc2ccc(Cl)cc2Cl)c1 (stereo not drawn) [SR-01000318010] | 1.19 | 1.15 | 12.20 ± 3.74 |  |  |  |  |  |  | 90.09 ± 14.61 | 3.32 | 3.28 | 1.08 | 0.38 | 0.103 |  |  |  |  | > 14.1
8 | N#C/C(=C/c1ccc(CNS(=O)(=O)c2ccccc2)o1)C(=O)NCCc1ccccc1 [SR-01000318079] | 1.96 | 1.94 | 11.69 ± 6.13 |  |  |  |  |  |  | 102.46 ± 8.64 | 3.78 | 3.77 | 0.56 | 0.30 | 0.21 |  |  |  |  | > 14.1
9 | Cc1c(Cl)c([N+](=O)[O-])nn1CC(=O)NC(C)COc1ccccc1 (stereo not drawn) [SR-01000318171] | 2.16 | 2.16 | 6.88 ± 5.68 | > 14.1 | 0.36 | 1.01 | 3.49 | 3.49 | 0.656 | 76.40 ± 3.97 |  |  |  |  |  |  |  |  |  | 
10 | Cc1cc(Br)ccc1OCC(=O)NNC(=O)c1ccccc1C [SR-01000318521] | 1.31 | 1.30 | 6.11 ± 9.12 | > 14.1 | 0.36 | 0.97 | 2.40 | 2.39 | 1.2 | 72.38 ± 5.96 |  |  |  |  |  |  |  |  |  | 
11 | CC(Oc1ccc(Cl)cc1Cl)C(=O)NNC(=O)c1ccncc1 (stereo not drawn) [SR-01000319951] | 2.60 | 2.54 | 7.14 ± 13.31 | > 14.1 |  |  |  |  |  | 97.49 ± 3.70 | 4.59 | 4.53 | 0.88 | 0.42 | 0.143 |  |  |  |  | 
12 | O=C(O)CC1CCCC1c1ccccc1 (stereo not drawn) [SR-01000320687] | 4.35 | 1.80 | 17.26 ± 6.30 | > 14.1 | 0.56 | 0.93 | 5.53 | 2.98 | 0.93 | 65.23 ± 8.63 |  |  |  |  |  |  |  |  |  | 
13 | COc1ccccc1NC(=O)C(=O)NNC(=O)COc1ccc(Br)cc1C [SR-01000325257] | 2.48 | 2.44 | −2.80 ± 2.96 | > 14.1 | 0.29 | 0.69 | 3.27 | 3.22 | 2.3 | 66.69 ± 11.44 |  |  |  |  |  |  |  |  |  | 
14 | COc1ccc(CCN2CC3=C(C2=O)C(c2ccc(F)c(F)c2)NC(=O)N3)cc1 (stereo not drawn) [SR-01000335002] | 3.09 | 3.09 | 20.28 ± 3.20 |  | 0.31 | 0.68 | 4.62 | 4.62 | 0.422 | 86.79 ± 17.90 |  |  |  |  |  |  |  |  |  | > 14.1
15 | COc1ccc(CCn2nc(-c3cccnc3)[nH]c2=O)cc1 [SR-01000335115] | 2.33 | 2.33 | 12.86 ± 9.78 | > 14.1 | 0.38 | 1.29 | 3.37 | 3.37 | 1.3 | 86.17 ± 9.84 |  |  |  |  |  |  |  |  |  | 
